According to US10743540B2, “3-amino-1,2,4-triazine derivatives and their use for controlling undesired plant growth” (BAYER CROPSCIENCE AKTIENGESELLSCHAFT, priority 2016, dated 2020):

Legend:
Format in all cases: in vivo
STEME: Stellaria media [1] = experiment: Post-emergence herbicidal effect; details: application rate 320 g/ha, treated at one-leaf stage, assessed visually after about 3 weeks, 100% = plants have died
Method in brief: (§1)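 Monocot and dicot weeds grown in sandy loam in greenhouse, treated at one-leaf stage 2 to 3 weeks after sowing. Compounds as WP or EC sprayed on green parts in water at 600 to 800 L/ha with 0.2% wetting agent. Visual rating after about 3 weeks vs untreated controls (100% = plants dead, 0% = like control).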

VIOTR: Viola tricolor = experiment: Post-emergence herbicidal effect; details: application rate 320 g/ha, treated at one-leaf stage, assessed visually after about 3 weeks, 100% = plants have died
Method in brief: as §1

[2] = test system: ECHCG: Echinochloa crus-galli; experiment: Post-emergence herbicidal effect; details: application rate 320 g/ha, treated at one-leaf stage, assessed visually after about 3 weeks, 100% = plants have died
Method in brief: as §1

[3] = test system: AMARE: Amaranthus retroflexus; experiment: Post-emergence herbicidal effect; details: application rate 320 g/ha, treated at one-leaf stage, assessed visually after about 3 weeks, 100% = plants have died
Method in brief: as §1

VERPE: Veronica persica [4] = experiment: Post-emergence herbicidal effect; details: application rate 320 g/ha, treated at one-leaf stage, assessed visually after about 3 weeks, 100% = plants have died
Method in brief: as §1

[5] = test system: ALOMY: Alopecurus myosuroides; experiment: Post-emergence herbicidal effect; details: application rate 320 g/ha, treated at one-leaf stage, assessed visually after about 3 weeks, 100% = plants have died
Method in brief: as §1

STEME: Stellaria media [6] = experiment: Pre-emergence herbicidal effect; details: application rate 320 g/ha, scored visually after 3 weeks, 100% = plants have died, 0% = like control plants
Method in brief: (§2)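 Visual scoring after a 3-week greenhouse period gave percent activity (100% = dead, 0% = like control). Treatment was pre-emergence: aqueous WP or EC formulations with 0.2% wetting agent, applied at 600 to 800 L/ha onto covering soil over seeds in sandy loam.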

[7] = test system: ECHCG: Echinochloa crus-galli; experiment: Pre-emergence herbicidal effect; details: application rate 320 g/ha, scored visually after 3 weeks, 100% = plants have died, 0% = like control plants
Method in brief: as §2

[8] = test system: ABUTH: Abutilon theophrasti; experiment: Pre-emergence herbicidal effect; details: application rate 320 g/ha, scored visually after 3 weeks, 100% = plants have died, 0% = like control plants
Method in brief: as §2

[9] = test system: POLCO: Polygonum convolvulus; experiment: Pre-emergence herbicidal effect; details: application rate 320 g/ha, scored visually after 3 weeks, 100% = plants have died, 0% = like control plants
Method in brief: as §2

SETVI: Setaria viridis = experiment: Pre-emergence herbicidal effect; details: application rate 320 g/ha, scored visually after 3 weeks, 100% = plants have died, 0% = like control plants
Method in brief: as §2

[10] = test system: LOLMU: Lolium multiflorum; experiment: Pre-emergence herbicidal effect; details: application rate 320 g/ha, scored visually after 3 weeks, 100% = plants have died, 0% = like control plants
Method in brief: as §2

VERPE: Veronica persica [11] = experiment: Pre-emergence herbicidal effect; details: application rate 320 g/ha, scored visually after 3 weeks, 100% = plants have died, 0% = like control plants
Method in brief: as §2

[12] = test system: ALOMY: Alopecurus myosuroides; experiment: Pre-emergence herbicidal effect; details: application rate 320 g/ha, scored visually after 3 weeks, 100% = plants have died, 0% = like control plants
Method in brief: as §2

[13] = test system: MATIN: Matricaria inodora; experiment: Pre-emergence herbicidal effect; details: application rate 320 g/ha, scored visually after 3 weeks, 100% = plants have died, 0% = like control plants
Method in brief: as §2

SMILES	Herbicidal activity with respect to [%] STEME (STEME: Stellaria media [1]) [%]	Herbicidal activity with respect to [%] VIOTR (VIOTR: Viola tricolor) [%]	Herbicidal activity with respect to [%] ECHCG [2] [%]	Herbicidal activity with respect to [%] AMARE [3] [%]	Herbicidal activity with respect to [%] VERPE (VERPE: Veronica persica [4]) [%]	Herbicidal activity with respect to [%] ALOMY [5] [%]	Herbicidal activity with respect to [%] STEME (STEME: Stellaria media [6]) [%]	Herbicidal activity with respect to [%] ECHCG [7] [%]	Herbicidal activity with respect to [%] ABUTH [8] [%]	Herbicidal activity with respect to [%] POLCO [9] [%]	Herbicidal activity with respect to [%] SETVI (SETVI: Setaria viridis) [%]	Herbicidal activity with respect to [%] LOLMU [10] [%]	Herbicidal activity with respect to [%] VERPE (VERPE: Veronica persica [11]) [%]	Herbicidal activity with respect to [%] ALOMY [12] [%]	Herbicidal activity with respect to [%] MATIN [13] [%]
Cc1ccc2c(c1)[C@H](Nc1nnc(Cl)c(N)n1)[C@@H](C)C2 [Example 1.3, 6-Chloro-N^3-[(1R,2S)-2,6-dimethyl-2,3-dihydro-1H-inden-1-yl]-1,2,4-triazine-3,5-diamine]	100	100	80	100	100	90	100	100	100	100	100	100	100	100	100
Nc1nc(N[C@@H]2CCCc3ccccc32)nnc1C(F)(F)F [Example 1.22]	100	100	100	100	100	100	100	100	90	100	100	–	100	100	100
Cc1ccc2c(c1)[C@H](Nc1nnc(C(F)(F)F)c(N)n1)[C@@H](C)C2 [Example 1.23]	100	100	100	100	90	100	100	100	100	100	100	90	100	100	100
Nc1nc(N[C@@H]2CCc3ccccc32)nnc1C(F)(F)F [Example 1.24]	100	100	100	90	100	100	100	100	80	100	100	100	100	100	100
Cc1ccc2c(c1)[C@H](Nc1nnc(C#N)c(N)n1)[C@@H](C)C2 [Example 1.25]	100	90	100	90	100	100	100	100	100	100	100	100	100	100	100
Cc1ccc2c(c1)[C@H](Nc1nnc(S(C)(=O)=O)c(N)n1)CCC2 [Example 1.68]	100	90	80	–	80	100	100	100	100	100	100	100	100	100	100
Cc1ccc2c(c1)[C@H](Nc1nnc([S+](C)[O-])c(N)n1)CCC2 (stereo partly drawn) [Example 1.69]	100	80	80	90	80	90	100	100	–	100	100	90	100	90	100
